Results published in ChEMBL document CHEMBL1139459, “Effects of pH on the cytotoxicity of sodium trioxodinitrate (Angeli's salt)” (J Med Chem, 2004).

Key:
[1] = pK2 was determined; type: ADME; settings: read-out: pK2
[2] = pK1 was determined; type: ADME; settings: read-out: pK1

pKa [1]: 9.35
pKa [2]: 3
Compound: [O-]/[N+](O)=N\O
